From patent publication US20250314644A1, “METHODS COMPRISING DETECTION OF ADP-HEPTOSE” (CHILDREN'S HOSPITAL MEDICAL CENTER, priority 2023, published 2025)

What was measured:
Assay type in all cases: cell-based, mouse
[1] = test system: Dnmt3a^−/−; Alpk1^−/− HSPCs; assay: NF-κB activation in vitro (immunoblot)
Dnmt3a^−/− HSCs = assay: Serial colony replating; conditions: compared to vehicle
Description: (§1) (A) Heatmap representing gene expression analysis of HSPCs isolated from Dnmt3a^WT or Dnmt3a^KO or Dnmt3a^KO; Alpk1^KO mice treated with either H2O or ADP-heptose for 90 minutes in vitro as determined by RNA-sequencing from three independent replicates (1.5 fold; P<0.05). (B) Gene Set Enrichment Analysis (GSEA) of Dnmt3a^KO cells treated with ADP-heptose versus H2O. […] NES, normalized enrichment score. Absolute enrichment score (ES) and corresponding P value are shown for each pathway. (D) Enrichment of transcription factors was determined with the ENCODE and CHIP Enrichment Analysis (ChEA) libraries using genes that are overexpressed in ADP-heptose-stimulated Dnmt3a^WT versus H2O-stimulated Dnmt3a^WT (left panel) or ADP-heptose-stimulated Dnmt3a^KO versus H2O-stimulated Dnmt3a^KO HSPCs (right panel). (E) Representative flow cytometric profile of EdU+HSCs after ADP-heptose or H2O treatment. […] In each plating, colonies were scored at day 14. […] (L) Colony forming potential of Dnmt3a^WT or Dnmt3a^KO HSPCs was evaluated upon treatment with either vehicle, ADP-heptose, or ADP-heptose and UBE2N inhibitor. (M) CD34+ MDS BM and normal CD34+ BM cells treated with vehicle, ADP-heptose, or ADP-heptose and UBE2N inhibitor were evaluated for colony formation in methylcellulose. […]

[2] = test system: Dnmt3a; Alpk1 deficient HSCs; assay: Serial colony replating
Description: as §1

[3] = test system: Dnmt3a^−/− HSCs relative to WT HSCs; assay: In vitro HSC competition assay; conditions: co-culture, ADP-heptose for 14 days
Description: The polyvinyl alcohol-based in vitro HSC expansion protocol was adapted as previously described. (Wilkinson, A. C., et al. Long-term ex vivo haematopoietic-stem-cell expansion allows nonconditioned transplantation. Nature 571, 117-121 (2019) and Wilkinson, A. C., Ishida, R., Nakauchi, H. & Yamazaki, S. Long-term ex vivo expansion of mouse hematopoietic stem cells. Nat Protoc 15, 628-648 (2020).) 50 HSCs from WT-GFP (C57BL/6-Tg(UBC-GFP)30Scha/J, Cat no. 004353, Jackson Labs) and 50 HSCs from Dnmt3a^−/− mice were sorted directly into each well of a fibronectin-coated 96-well plate (Cat no. 08-774-60, Fisher Scientific) with Ham's F12 nutrient mix media (Cat no. 11765054, Thermo Fisher Scientific) containing final concentrations of 1× penicillin-streptomycin-glutamine (Cat no. 10378-016, Thermo Fisher Scientific), 10 mM HEPES (Cat no. 15630080, Thermo Fisher Scientific), 1× insulin-transferrin-selenium-ethanolamine (ITS-X, Cat no. 51500056, Thermo Fisher Scientific), 100 ng/mL recombinant murine TPO (Cat no. […] After 14 days of ADP-heptose treatment, cells were harvested, counted by trypan blue exclusion assay, and analyzed by flow cytometry. To enumerate cells, a defined number of CountBright Absolute Counting Beads (Thermo Fisher Scientific, Cat no. C36950) were added to each sample and cell count was back calculated to the proportion of the total that were run through the cytometer.

Nc1ncnc2c1ncn2[C@@H]1O[C@H](COP(=O)(O)OP(=O)(O)O[C@@H]2O[C@H]([C@H](O)CO)[C@@H](O)[C@H](O)[C@@H]2O)[C@@H](O)[C@H]1O [ADP-heptose, ADP-D-glycero-β-D-manno-heptose]
NF-κB activation upon ADP-heptose stimulation [1]: unable to activate NF-κB
serial colony formation (Dnmt3a^−/− HSCs): significantly increased serial colony formation
colony replating response to ADP-heptose [2]: did not respond
in vitro competition of Dnmt3a^−/− HSCs relative to WT HSCs [3]: competitive advantage
